Source: US20250186646A1, “Use of Volatile Compositions to Limit or Eliminate Perception of Fecal Malodour” (Firmenich SA, priority 2016, published 2025)

Legend:
p-cresol = test: Reduction of perceived intensity of p-cresol by MOCs (Table 16); type: in vivo; details: for p-cresol Dyn Conc: concentration at which the MOC reduces the perceived intensity of p-cresol; for p-cresol Reduction: perceived intensity of p-cresol, at the Dyn Conc
DMTS = test: Reduction of perceived intensity of DMTS by MOCs (Table 16); type: in vivo; details: for DMTS Dyn Conc: concentration at which the MOC reduces the perceived intensity of DMTS; for DMTS Reduction: perceived intensity of DMTS, at the Dyn Conc
butyric acid = test: Reduction of perceived intensity of butyric acid by MOCs (Table 16); type: in vivo; details: for Butyric acid Dyn Conc: concentration at which the MOC reduces the perceived intensity of butyric acid; for Butyric acid Reduction: perceived intensity of butyric acid, at the Dyn Conc
indole = test: Reduction of perceived intensity of indole by MOCs (Table 16); type: in vivo; details: for Indole Dyn Conc: concentration at which the MOC reduces the perceived intensity of indole; for Indole Reduction: perceived intensity of indole, at the Dyn Conc
[1] = system: fecal malodour reconstitution; test: Olfactometer blind sensory evaluation of test and control formulations (Example 15); type: in vivo; set-up: Fecal Score / Freshness Score / Pleasantness Score: scale not given here; details: for Fecal Score: in combination with fecal reconstitution; for Fecal Score left: relative to fecal reconstitution alone (100)
Experimental: (§1) The performance of a test formulation containing LILYFLORE, Violet AT and Isoraldeine to counteract the fecal malodour perceived from a fecal malodour reconstitution was tested. The amount of each single ingredient in the test formulation was the same as the corresponding concentration of the ingredient that was incorporated into the Floral compositions. Separate control formulations were also included, comprising LILYFLORE, Violet AT and Isoraldeine separately, at the same concentration as each single ingredient in the test formulation. The sensory evaluation was blind, and performed using olfactometers and a set of more than 30 participants evaluating blind. In parallel, the headspace concentration of the ingredients from the test and three control formulations was determined.
as §1, with “of another” for “of a”, “and dihydrolinalol” for “and Isoraldeine”, “tested.” for “tested. The amount of each single ingredient in the test formulation was the same as the corresponding concentration of the ingredient that was incorporated into the Floral compositions.”
The performance of another test formulation containing LILYFLORE, isoraldeine, Violet AT and dihydrolinalol to counteract the fecal malodour perceived from a fecal malodour reconstitution was tested. Separate control formulations were also included, comprising LILYFLORE, Violet AT, isoraldeine and dihydrolinalol separately, at the same concentration as each single ingredient in the test formulation. The sensory evaluation was blind, and performed using olfactometers and a set of more than 30 participants evaluating blind. In parallel, the headspace concentration of the ingredients from the test and […] control formulations was determined.

[2] = Olfactory detection thresholds (ODT); details: gas phase

| Compound | p-cresol Dyn Conc (p-cresol) | p-cresol Reduction (p-cresol) | DMTS Dyn Conc (DMTS) | DMTS Reduction (DMTS) | Butyric acid Dyn Conc (butyric acid) | Butyric acid Reduction (butyric acid) | Indole Dyn Conc (indole) | Indole Reduction (indole) | also measured |
| --- | --- | --- | --- | --- | --- | --- | --- | --- | --- |
| CCCCCC1CCCC1=O (racemic) [Delphone, (+−)-2-pentylcyclopentanone] | 0.0488 µg/L | 64 | 0.046 µg/L | 67 |  |  |  |  |  |
| CC(=O)OC(c1ccccc1)C(Cl)(Cl)Cl (racemic) [Rosinol Cryst, (+−)-2,2,2-TRICHLORO-1-PHENYLETHYL ACETATE] |  |  | 0.659 µg/L | 38 |  |  |  |  |  |
| Cc1ccc2c(c1)CC(C)(CO)C2 (racemic) [LILYFLORE, (+−)-2,5-DIMETHYL-2-INDANMETHANOL] | 0.22 µg/L | 76 | 0.126 µg/L | 64 | 0.0351 µg/L | 58 | 0.206 µg/L | 81 | Fecal % Red ([1]; Table 18): 56%; Freshness Score ([1]; Table 18): 4.4; Pleasantness Score ([1]; Table 18): 4.8; Fecal Score ([1]; Table 18): 3.8; Fecal Score left ([1]; Table 18): 44; Fecal % Redn ([1]; Table 19): 45%; Freshness Score ([1]; Table 19): 4.0; Pleasantness Score ([1]; Table 19): 4.1; Fecal Score ([1]; Table 19): 4.7; Fecal Score left ([1]; Table 19): 55; Fecal % Redn ([1]; Table 20): 45%; Freshness Score ([1]; Table 20): 3.9; Pleasantness Score ([1]; Table 20): 3.8; Fecal Score ([1]; Table 20): 4.8; Fecal Score left ([1]; Table 20): 55; olfactory detection thresholds (ODT) [2]: 0.000128 µg/L |
| CC(C)=CCCC(C)CCO (racemic) [Citronellol BJ, (+−)-3,7-DIMETHYL-6-OCTEN-1-OL] | 0.11 µg/L | 61 |  |  | 0.0947 µg/L | 55 | 0.252 µg/L | 65 |  |
| (1RS,2RS)-2,4-dimethyl-3-cyclohexene-1-carbaldehyde (A) + (1RS,2SR)-2,4-dimethyl-3-cyclohexene-1-carbaldehyde (B) [Zestover] | 0.0607 µg/L | 66 | 0.38 µg/L | 78 | 0.0809 µg/L | 68 | 0.348 µg/L | 82 |  |
| C/C=C/C(=O)C1C(C)=CCCC1(C)C (racemic) [Alpha damascone, (+−)-(2E)-1-(2,6,6-trimethyl-2-cyclohexen-1-yl)-2-buten-1-one] | 0.0413 µg/L | 62 |  |  | 0.041 µg/L | 43 |  |  |  |
| CCCCCC/C(C=O)=C\c1ccccc1 [Hexylcinnamic aldehyde, (2E)-2-benzylideneoctanal] | 1.34 µg/L | 39 |  |  | 1.34 µg/L | 26 |  |  |  |
| CC(=O)OCc1ccccc1 [Benzyl acetate, Benzyl Acetate] |  |  |  |  | 1.31 µg/L | 54 |  |  |  |
| OCCc1ccccc1 [Phenylethyl alcohol, 2-PHENYLETHANOL] | 0.318 µg/L | 49 | 1.03 µg/L | 55 |  |  | 0.538 µg/L | 46 |  |
| (+−)-(3E)-4-(2,6,6-trimethyl-2-cyclohexen-1-yl)-3-buten-2-one (A) + (3E)-4-(2,6,6-trimethyl-1-cyclohexen-1-yl)-3-buten-2-one (B) [Violet AT] | 0.133 µg/L | 85 | 0.151 µg/L | 81 | 0.123 µg/L | 55 | 0.133 µg/L | 72 | Fecal % Red ([1]; Table 18): 58%; Freshness Score ([1]; Table 18): 4.7; Pleasantness Score ([1]; Table 18): 5.0; Fecal Score ([1]; Table 18): 3.6; Fecal Score left ([1]; Table 18): 42; Fecal % Redn ([1]; Table 19): 53%; Freshness Score ([1]; Table 19): 4.5; Pleasantness Score ([1]; Table 19): 4.8; Fecal Score ([1]; Table 19): 4.1; Fecal Score left ([1]; Table 19): 47; Fecal % Redn ([1]; Table 20): 44%; Freshness Score ([1]; Table 20): 4.1; Pleasantness Score ([1]; Table 20): 4.2; Fecal Score ([1]; Table 20): 4.9; Fecal Score left ([1]; Table 20): 56; olfactory detection thresholds (ODT) [2]: 0.000508 µg/L |
| (+−)-(3E)-3-methyl-4-(2,6,6-trimethyl-2-cyclohexen-1-yl)-3-buten-2-one (A) + (+−)-(1E)-1-(2,6,6-trimethyl-2-cyclohexen-1-yl)-1-penten-3-one (B) [Isoraldeine 70P] | 0.0674 µg/L | 49 | 0.216 µg/L | 69 | 0.0674 µg/L | 25 | 0.542 µg/L | 79 | Fecal % Red ([1]; Table 18): 58%; Freshness Score ([1]; Table 18): 4.8; Pleasantness Score ([1]; Table 18): 5.1; Fecal Score ([1]; Table 18): 3.6; Fecal Score left ([1]; Table 18): 42; Fecal % Redn ([1]; Table 20): 49%; Freshness Score ([1]; Table 20): 4.6; Pleasantness Score ([1]; Table 20): 4.5; Fecal Score ([1]; Table 20): 4.4; Fecal Score left ([1]; Table 20): 51; olfactory detection thresholds (ODT) [2]: 0.000192 µg/L |
